Patent publication US11952387B2, “Bicyclic heteroaromatic ring derivative” (priority 2018, dated 2024)

system: HRV14; test: Inhibitory activity against human rhinovirus infection and replication (quantitative real-time PCR); format: cell-based; details: Human rhinovirus sp., MRC5; 100 nmol/L test compound; MRC-5 cells infected with HRV14 at MOI=0.2; 48 hours; viral load normalized to 18s rRNA; read-out: Percent Inhibition
In short: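 Near-confluent MRC-5 cells were pretreated 30 min with compound at 100 or 1000 nmol/L, then infected with HRV14 (MOI 0.2) in compound-containing medium (2% FBS, 30 mmol/L MgCl2) and cultured 48 h at 35 °C. HRV14 RNA by qRT-PCR, normalized to 18S rRNA; percent inhibition versus untreated infected cells.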

| SMILES | inhibition at 0.1 µM [%] |
| --- | --- |
| COc1ccc(-c2c(C)nc3sc(C(O)(C4CC4)C4CC4)nn23)cc1S(=O)(=O)C(C)(C)CO [Example 4-5] | > 80 |
| Cc1nc2sc(C(C)(C)O)nn2c1-c1ccc(C(F)(F)F)c(S(=O)(=O)C(C)(C)C(=O)O)c1 [Example 5] | ≤ 50 |
| COc1ccc(-c2c(C)nc3sc(C(C)(C)O)nn23)cc1S(=O)(=O)C(C)(C)C(N)=O [Example 6-1] | 50 to 80 |
| Cc1nc2sc(C(C)(C)O)nn2c1-c1ccc(C(F)(F)F)c(S(=O)(=O)C(C)(C)C(N)=O)c1 [Example 6-2] | ≤ 50 |
| COc1ccc(-c2c(C)nc3sc(C(O)(C4CC4)C4CC4)nn23)cc1S(=O)(=O)C(C)(C)C(N)=O [Example 6-3] | > 80 |
| COc1c(F)cc(-c2c(C)nc3sc(C(O)(C4CC4)C4CC4)nn23)cc1S(=O)(=O)C(C)(C)C(N)=O [Example 6-4] | > 80 |
| COc1ccc(-c2c(C)nc3sc(C(C)(C)O)nn23)cc1S(=O)(=O)C(C)(C)C#N [Example 7-1] | > 80 |
| COc1ccc(-c2c(C)nc3sc(C(O)(C4CC4)C4CC4)nn23)cc1S(=O)(=O)C(C)(C)C#N [Example 7-2] | > 80 |
| CNC(=O)C(C)(C)S(=O)(=O)c1cc(-c2c(C)nc3sc(C(C)(C)O)nn23)ccc1OC [Example 8-1] | 50 to 80 |
| COc1ccc(-c2c(C)nc3sc(C(O)(C4CC4)C4CC4)nn23)cc1S(=O)(=O)C(C)(C)C(=O)NCC(C)(C)O [Example 8-3] | > 80 |
| CNC(=O)C(C)(C)S(=O)(=O)c1cc(-c2c(C)nc3sc(C(O)(C4CC4)C4CC4)nn23)ccc1OC [Example 8-4] | > 80 |
| Cc1nc2sc(C(C)(C)O)nn2c1-c1ccc(C(F)(F)F)c(S(=O)(=O)C2CN(S(C)(=O)=O)C2)c1 [Example 9-1] | > 80 |
| COc1ccc(-c2c(C)nc3sc(C(C)(C)O)nn23)cc1S(=O)(=O)C1CN(S(C)(=O)=O)C1 [Example 9-2] | 50 to 80 |
| COc1ccc(-c2c(C)nc3sc(C(O)(C4CC4)C4CC4)nn23)cc1S(=O)(=O)C1CN(S(C)(=O)=O)C1 [Example 9-3] | > 80 |
| CC(=O)N1CC(S(=O)(=O)c2cc(-c3c(C)nc4sc(C(C)(C)O)nn34)ccc2C(F)(F)F)C1 [Example 10-1] | > 80 |
| COc1ccc(-c2c(C)nc3sc(C(C)(C)O)nn23)cc1S(=O)(=O)C1CN(C(C)=O)C1 [Example 10-2] | ≤ 50 |
| COc1ccc(-c2c(C)nc3sc(C(O)(C4CC4)C4CC4)nn23)cc1S(=O)(=O)C1CN(C(C)=O)C1 [Example 10-3] | > 80 |
| Cc1nc2sc(C(C)(C)O)nn2c1-c1ccc(C(F)(F)F)c(S(=O)(=O)C2CN(C(N)=O)C2)c1 [Example 11] | ≤ 50 |
| Cc1nc2sc(C(C)(C)O)nn2c1-c1ccc(C(F)(F)F)c(S(=O)(=O)C2CN(C)C2)c1 [Example 12-1] | 50 to 80 |
| Cc1nc2sc(C(C)(C)O)nn2c1-c1ccc(C(F)(F)F)c(S(=O)(=O)C2CN(CCO)C2)c1 [Example 12-2] | 50 to 80 |
| COc1ccc(-c2c(C)nc3sc(C(C)(C)O)nn23)cc1S(=O)(=O)C1CCC(=O)CC1 [Example 13] | ≤ 50 |
| COc1ccc(-c2c(C)nc3sc(C(C)(C)O)nn23)cc1S(=O)(=O)C1CCC(O)CC1 (stereo not drawn) [Example 14] | ≤ 50 |
| COc1ccc(-c2c(C)nc3sc(C(C)(C)O)nn23)cc1S(=O)(=O)[C@H]1CC[C@@](C)(O)CC1 [Example 15-1] | ≤ 50 |
| COc1ccc(-c2c(C)nc3sc(C(C)(C)O)nn23)cc1S(=O)(=O)[C@H]1CC[C@](C)(O)CC1 [Example 15-2] | 50 to 80 |
| Cc1nc2sc(C(C)(C)O)nn2c1-c1ccc(O)c(S(=O)(=O)CC(C)(C)O)c1 [Example 16] | ≤ 50 |
| Cc1nc2sc(C(C)(C)O)nn2c1-c1ccc(CO)c(S(=O)(=O)CC(C)(C)O)c1 [Example 17] | ≤ 50 |
| COc1ccc(-c2c(C)nc3sc(C(C)(C)C(=O)O)nn23)cc1S(=O)(=O)N[C@H]1CC[C@@H](O)CC1 [Example 18-1] | 50 to 80 |

| SMILES | inhibition at 0.1 µM [%] |
| --- | --- |
| COc1ncc(-c2c(C)nc3sc(C(C)(C)C(=O)O)nn23)cc1S(=O)(=O)N[C@H]1CC[C@@H](O)CC1 [Example 18-2] | ≤ 50 |
| COc1ccc(-c2c(C)nc3sc(C(C)(C)C(=O)N(C)C)nn23)cc1S(=O)(=O)N[C@H]1CC[C@@H](O)CC1 [Example 19] | > 80 |
| COc1ccc(-c2c(C)nc3sc(C(C)(C)CO)nn23)cc1S(=O)(=O)N[C@H]1CC[C@@H](O)CC1 [Example 20-1] | > 80 |
| COc1ncc(-c2c(C)nc3sc(C(C)(C)CO)nn23)cc1S(=O)(=O)N[C@H]1CC[C@@H](O)CC1 [Example 20-2] | ≤ 50 |
| COc1ccc(-c2c(C)nc3sc(C(C)(C)O)cn23)cc1S(=O)(=O)N[C@H]1CC[C@@H](O)CC1 [Example 21-1] | ≤ 50 |
| COc1ccc(-c2c(C)nc3sc(C(C)(C)O)nn23)cc1S(=O)(=O)NC[C@H]1C[C@@H](O)C1 [Example 21-3] | 50 to 80 |
| COc1ccc(-c2c(C)nc3sc(C(C)(C)O)nn23)cc1S(=O)(=O)NCC1COC1 [Example 21-4] | 50 to 80 |
| COc1ccc(-c2c(C)nc3sc(C(C)(C)O)nn23)cc1S(=O)(=O)N[C@H]1C[C@H](CO)C1 [Example 21-5] | ≤ 50 |
| COc1ccc(-c2c(C)nc3sc(C(C)(C)O)nn23)cc1S(=O)(=O)NC[C@H]1C[C@H](O)C1 [Example 21-6] | ≤ 50 |
| COc1ccc(-c2c(C)nc3sc(C(C)(C)O)nn23)cc1S(=O)(=O)NCC(C)(C)O [Example 21-7] | 50 to 80 |
| COc1ccc(-c2c(C)nc3sc(C(C)(C)O)nn23)cc1S(=O)(=O)N[C@H]1C[C@H](O)C1 [Example 21-8] | 50 to 80 |
| COc1ccc(-c2c(C)nc3sc(C(C)(C)O)nn23)cc1S(=O)(=O)N[C@H]1C[C@@H](CO)C1 [Example 21-9] | ≤ 50 |
| COc1ccc(-c2c(C)nc3sc(C(C)(C)O)nn23)cc1S(=O)(=O)N[C@H]1C[C@@H](O)C1 [Example 21-10] | ≤ 50 |
| COc1ccc(-c2c(C)nc3sc(C(C)(C)O)nn23)cc1S(=O)(=O)NC12CCC(O)(CC1)CC2 [Example 21-11] | ≤ 50 |
| COc1ccc(-c2c(C)nc3sc(C(C)(C)O)nn23)cc1S(=O)(=O)N[C@H]1CC[C@](C)(O)CC1 [Example 21-12] | 50 to 80 |
| COc1ccc(-c2c(C)nc3sc(C(C)(C)O)nn23)cc1S(=O)(=O)N[C@H]1CC[C@@](C)(O)CC1 [Example 21-13] | ≤ 50 |
| COc1ccc(-c2c(C)nc3sc(C(C)(C)O)nn23)cc1S(=O)(=O)NC1(C)CCC(O)CC1 (stereo not drawn) [Example 21-14] | > 80 |
| COc1ccc(-c2c(C)nc3sc(C(C)(C)O)nn23)cc1S(=O)(=O)NC1(CO)CC(F)(F)C1 [Example 21-15] | > 80 |
| COc1ccc(-c2c(C)nc3sc(C(C)(C)O)nn23)cc1S(=O)(=O)NCC(O)C(F)(F)F (stereo not drawn) [Example 21-16] | 50 to 80 |
| COc1ccc(-c2c(C)nc3sc(C(C)(C)O)cn23)cc1S(=O)(=O)Nc1ccc(O)cc1 [Example 21-18] | 50 to 80 |
| COc1ccc(-c2c(C)nc3sc(C(C)(C)O)cn23)cc1S(=O)(=O)Nc1ccc(F)cc1 [Example 21-19] | 50 to 80 |
| COc1ccc(-c2c(C)nc3sc(C(C)(C)O)nn23)cc1S(=O)(=O)Nc1ccc(C#N)cc1 [Example 21-20] | ≤ 50 |
| COc1ccc(-c2c(C)nc3sc(C4(O)CC4)cn23)cc1S(=O)(=O)N[C@H]1CC[C@@H](O)CC1 [Example 22] | ≤ 50 |
| COc1ccc(-c2c(C)nc3sc(C(C)(C)O)nn23)cc1S(=O)(=O)NC1(C(C)(C)O)CC1 [Example 23] | > 80 |
| COc1ccc(-c2c(C)nc3sc(C(C)(C)O)cn23)cc1S(=O)(=O)N(C)[C@H]1CC[C@@H](O)CC1 [Example 24] | ≤ 50 |
| C=C(C)c1cn2c(-c3ccc(OC)c(S(=O)(=O)N[C@H]4CC[C@@H](O)CC4)c3)c(C)nc2s1 [Example 25] | 50 to 80 |
| COc1ccc(-c2c(C)nc3sc(C(C)(C)O)nn23)cc1S(=O)(=O)Cc1ccc(N)cc1 [Example 26] | ≤ 50 |
